# Measurements as given in ChEMBL document CHEMBL1137856, “The pharmacophore hypotheses of I(Kr) potassium channel blockers: novel class III antiarrhythmic agents” (Bioorg Med Chem Lett, 2004).
# Target: Voltage-gated inwardly rectifying potassium channel KCNH2 (Homo sapiens, UniProt Q12809)
# Assay: Inhibitory concentration against IKr potassium channel
# Chain of Voltage-gated inwardly rectifying potassium channel KCNH2 (Q12809 whole entry): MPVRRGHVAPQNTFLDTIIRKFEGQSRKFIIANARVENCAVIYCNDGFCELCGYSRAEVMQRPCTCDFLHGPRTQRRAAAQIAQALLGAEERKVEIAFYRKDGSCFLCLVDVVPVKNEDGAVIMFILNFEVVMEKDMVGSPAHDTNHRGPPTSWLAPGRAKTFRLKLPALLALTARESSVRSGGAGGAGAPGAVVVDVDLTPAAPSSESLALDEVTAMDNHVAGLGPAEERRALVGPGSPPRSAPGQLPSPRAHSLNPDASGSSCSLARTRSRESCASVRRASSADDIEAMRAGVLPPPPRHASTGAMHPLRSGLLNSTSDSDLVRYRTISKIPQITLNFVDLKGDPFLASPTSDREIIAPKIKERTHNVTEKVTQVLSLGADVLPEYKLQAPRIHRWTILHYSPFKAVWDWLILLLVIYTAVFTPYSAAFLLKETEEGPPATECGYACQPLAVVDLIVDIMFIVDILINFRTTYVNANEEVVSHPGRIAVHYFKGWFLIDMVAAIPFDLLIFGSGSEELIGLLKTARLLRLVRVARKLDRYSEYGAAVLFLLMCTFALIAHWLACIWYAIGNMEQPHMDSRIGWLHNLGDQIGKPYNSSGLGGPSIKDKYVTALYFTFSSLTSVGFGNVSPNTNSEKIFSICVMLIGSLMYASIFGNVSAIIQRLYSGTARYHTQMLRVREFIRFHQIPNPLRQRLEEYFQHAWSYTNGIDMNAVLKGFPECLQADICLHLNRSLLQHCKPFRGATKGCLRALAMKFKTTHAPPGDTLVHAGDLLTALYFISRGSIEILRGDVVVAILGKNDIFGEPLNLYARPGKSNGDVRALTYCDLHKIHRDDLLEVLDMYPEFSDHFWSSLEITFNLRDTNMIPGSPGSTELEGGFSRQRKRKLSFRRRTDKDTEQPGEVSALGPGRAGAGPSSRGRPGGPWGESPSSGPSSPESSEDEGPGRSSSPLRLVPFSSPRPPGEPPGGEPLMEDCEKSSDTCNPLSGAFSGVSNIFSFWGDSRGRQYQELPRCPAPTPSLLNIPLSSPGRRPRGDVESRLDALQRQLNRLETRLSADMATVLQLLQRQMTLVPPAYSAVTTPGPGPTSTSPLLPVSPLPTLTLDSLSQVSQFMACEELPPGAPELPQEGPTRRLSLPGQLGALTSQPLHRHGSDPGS
row,SMILES,IC50
1,CCCCCCCN(CC)CCCCc1ccc([N+](=O)[O-])cc1,0.01 µM
2,COc1ccc(CCNCCCNC(=O)c2ccc([N+](=O)[O-])cc2)cc1OC,0.42 µM
3,"COc1cc2c(cc1OC)C(Cc1ccc(O)c(Oc3ccc(C[C@@H]4c5cc(OC)c(OC)cc5CCN4C)cc3)c1)N(C)CC2 (single isomer, unassigned) [DAURICINE]",16 µM
4,CCCNCC(O)COc1ccc(O)cc1C(=O)CCc1ccccc1 (stereo not drawn) [5-HYDROXY PROPAFENONE],40 µM
5,CN1CCN(CCCCN2C(=O)CN(/N=C/c3ccc(-c4ccc(Cl)cc4)o3)C2=O)CC1 [AZIMILIDE],0.4 µM
6,Nc1ccncc1 [DALFAMPRIDINE],4400 µM
7,CCCCc1oc2ccc(NS(C)(=O)=O)cc2c1C(=O)c1ccc(OCCCN(CCCC)CCCC)cc1 [DRONEDARONE],3 µM
8,CCCCN(CCCC)CC(O)c1cc(Cl)cc2c1-c1ccc(Cl)cc1C2=Cc1ccc(Cl)cc1 (stereo not drawn) [LUMEFANTRINE],8.1 µM
9,NCC(O)COc1ccccc1C(=O)CCc1ccccc1 (stereo not drawn) [N-DEPROPYL-PROPAPHENONE],44 µM
10,CCC1(c2ccccc2)C(=O)NC(=O)NC1=O [PHENOBARBITAL],3000 µM
11,COc1ccc(CN(CCN(C)C)c2ccccn2)cc1 [PYRILAMINE],1.1 µM
12,COc1ccc(C2CCN(CC[C@H]3CCOc4ccccc43)CC2)cc1OC [TERIKALANT],0.03 µM
13,COc1ccc(C(=O)N2CCN(c3ccc4c(c3)CCC(=O)N4)CC2)cc1OC [VESNARINONE],18 µM
